Legend:
JAK1 = target: T1, JAK1 (Homo sapiens, UniProt P23458); test: JAK1 enzyme inhibition test (LANCE method); assay type: biochemical; details: for inhibition at 1 µM / Inhibitory rate (%) JAK1 1 μM: test compound 1 μM; for inhibition at 1 µM: read-out: Inhibitory rate (%) JAK1 1 μM
T1 construct: purchased Invitrogen
How it was run: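 TR-FRET (LANCE) kinase assay using JAK1 at 187.5 ng/mL, ULight-JAK1 peptide at 300 nM and ATP at 150 μM, given as solution concentrations before mixing. Buffer was 50 mM HEPES pH 7.5 with 10 mM MgCl2 and 2 mM DTT, and the reaction ran 1 h at room temperature. Eu anti-phosphotyrosine signal at 665 nm was expressed relative to a no-enzyme well, taken as 100% inhibition.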

Tyk2 = target: T2, Tyk2 (Homo sapiens, UniProt P29597); test: Tyk2 enzyme inhibition test (LANCE method); assay type: biochemical; details: for inhibition at 1 µM / Inhibitory rate (%) Tyk2 1 μM: test compound 1 μM; for inhibition at 1 µM: read-out: Inhibitory rate (%) Tyk2 1 μM
T2 construct: purchased Invitrogen
How it was run: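 Recombinant Tyk2 (375 ng/mL stock) with ULight-JAK1 peptide (300 nM stock) and ATP (30 μM stock) in HEPES pH 7.5/MgCl2/EGTA/DTT buffer, 1 h at room temperature. Stopped with EDTA plus Eu-anti-phosphotyrosine antibody; TR-FRET read at 665 nm after 1 h. No-enzyme wells define 100% inhibition.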

T2 sequence (P29597 whole entry): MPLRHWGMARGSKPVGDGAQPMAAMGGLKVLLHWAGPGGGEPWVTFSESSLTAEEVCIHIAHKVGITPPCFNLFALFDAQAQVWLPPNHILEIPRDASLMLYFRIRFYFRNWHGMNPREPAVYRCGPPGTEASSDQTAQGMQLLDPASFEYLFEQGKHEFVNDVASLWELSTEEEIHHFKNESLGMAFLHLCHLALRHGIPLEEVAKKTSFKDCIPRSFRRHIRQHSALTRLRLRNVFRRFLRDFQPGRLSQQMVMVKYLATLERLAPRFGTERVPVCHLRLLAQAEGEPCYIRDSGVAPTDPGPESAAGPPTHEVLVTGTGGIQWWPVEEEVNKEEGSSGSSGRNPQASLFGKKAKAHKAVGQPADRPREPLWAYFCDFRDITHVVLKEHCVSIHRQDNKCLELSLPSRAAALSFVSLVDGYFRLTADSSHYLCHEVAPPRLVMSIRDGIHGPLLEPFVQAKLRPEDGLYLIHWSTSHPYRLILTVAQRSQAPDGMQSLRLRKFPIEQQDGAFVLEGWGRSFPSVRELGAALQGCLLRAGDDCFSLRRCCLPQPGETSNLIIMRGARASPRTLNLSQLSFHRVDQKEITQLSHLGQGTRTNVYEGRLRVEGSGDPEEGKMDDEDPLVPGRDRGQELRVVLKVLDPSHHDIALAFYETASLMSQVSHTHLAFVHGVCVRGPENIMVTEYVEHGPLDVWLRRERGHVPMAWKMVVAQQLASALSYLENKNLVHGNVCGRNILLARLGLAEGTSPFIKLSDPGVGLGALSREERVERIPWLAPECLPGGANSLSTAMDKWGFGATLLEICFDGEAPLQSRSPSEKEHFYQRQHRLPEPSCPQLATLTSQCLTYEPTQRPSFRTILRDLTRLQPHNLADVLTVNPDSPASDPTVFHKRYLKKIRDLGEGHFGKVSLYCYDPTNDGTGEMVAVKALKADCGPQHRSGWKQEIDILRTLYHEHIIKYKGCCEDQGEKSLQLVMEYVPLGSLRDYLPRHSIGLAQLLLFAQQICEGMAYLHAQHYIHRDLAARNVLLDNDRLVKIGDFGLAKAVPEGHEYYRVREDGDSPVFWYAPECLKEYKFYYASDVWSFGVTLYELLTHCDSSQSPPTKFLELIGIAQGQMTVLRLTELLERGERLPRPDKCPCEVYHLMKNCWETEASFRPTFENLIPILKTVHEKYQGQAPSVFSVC
T1 sequence (P23458 whole entry): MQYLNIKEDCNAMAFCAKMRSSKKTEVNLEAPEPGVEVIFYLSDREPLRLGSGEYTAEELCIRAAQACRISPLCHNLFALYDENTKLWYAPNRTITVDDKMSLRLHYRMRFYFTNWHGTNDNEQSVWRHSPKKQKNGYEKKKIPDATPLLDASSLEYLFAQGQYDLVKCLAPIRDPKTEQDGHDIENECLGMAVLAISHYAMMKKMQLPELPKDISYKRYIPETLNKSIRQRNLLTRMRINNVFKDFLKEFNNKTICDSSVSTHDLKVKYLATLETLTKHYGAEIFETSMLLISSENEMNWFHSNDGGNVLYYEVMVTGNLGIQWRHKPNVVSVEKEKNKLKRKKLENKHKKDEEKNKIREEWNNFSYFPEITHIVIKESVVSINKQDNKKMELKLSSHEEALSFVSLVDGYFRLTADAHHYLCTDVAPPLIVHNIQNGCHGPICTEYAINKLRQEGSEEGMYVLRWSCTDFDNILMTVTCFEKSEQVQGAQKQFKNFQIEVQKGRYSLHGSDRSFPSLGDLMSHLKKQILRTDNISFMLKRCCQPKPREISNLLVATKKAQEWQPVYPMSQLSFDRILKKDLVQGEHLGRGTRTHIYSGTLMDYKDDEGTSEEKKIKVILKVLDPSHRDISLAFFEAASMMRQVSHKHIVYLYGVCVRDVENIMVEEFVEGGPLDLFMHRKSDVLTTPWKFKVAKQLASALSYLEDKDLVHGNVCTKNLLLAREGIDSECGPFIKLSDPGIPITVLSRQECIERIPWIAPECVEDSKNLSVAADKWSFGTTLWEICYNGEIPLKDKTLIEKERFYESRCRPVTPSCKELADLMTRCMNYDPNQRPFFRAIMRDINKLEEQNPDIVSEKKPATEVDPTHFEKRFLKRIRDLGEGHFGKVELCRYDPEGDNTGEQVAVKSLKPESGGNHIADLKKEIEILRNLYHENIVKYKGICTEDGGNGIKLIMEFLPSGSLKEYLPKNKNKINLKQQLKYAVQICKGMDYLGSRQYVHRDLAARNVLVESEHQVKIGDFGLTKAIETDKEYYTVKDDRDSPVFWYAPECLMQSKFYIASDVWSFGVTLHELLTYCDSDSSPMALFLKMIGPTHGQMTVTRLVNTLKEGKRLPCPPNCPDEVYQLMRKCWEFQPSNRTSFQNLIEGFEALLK

Row | SMILES | inhibition at 1 µM (JAK1) [%] | inhibition at 1 µM (Tyk2) [%] | also measured
1 | COC(=O)c1cc(-n2nc(-c3ccccc3C)c3c(Br)c[nH]c(=O)c32)cs1 [Example 78, methyl 4-(4-bromo-3-(2-methylphenyl)-7-oxo-6,7-dihydro-1H-pyrazolo[3,4-c]pyridin-1-yl)thiophene-2-carboxylate] | 23 | 75 | –
2 | Cc1ccccc1-c1nn(-c2csc(C(=O)O)c2)c2c(=O)[nH]cc(Br)c12 [Example 79, 4-(4-bromo-3-(2-methylphenyl)-7-oxo-6,7-dihydro-1H-pyrazolo[3,4-c]pyridin-1-yl)thiophene-2-carboxylic acid] | 44 | 93 | –
3 | Cc1ccccc1-c1nn(-c2csc(C(N)=O)c2)c2c(=O)[nH]cc(Br)c12 [Example 80, 4-(4-bromo-3-(2-methylphenyl)-7-oxo-6,7-dihydro-1H-pyrazolo[3,4-c]pyridin-1-yl)thiophene-2-carboxamide] | 82 | 97 | –
4 | N#Cc1c[nH]c(=O)c2c(-c3ccc(C(N)=O)cc3)cn(C3CCCC3)c12 [Example 81, 4-(7-cyano-1-cyclopentyl-4-oxo-4,5-dihydro-1H-pyrrolo[3,2-c]pyridin-3-yl)benzamide] | 62 | 97 | –
5 | NS(=O)(=O)c1ccc(-c2nn(C3CCOC3)c3cc[nH]c(=O)c23)cc1 (stereo not drawn) [Example 82, 4-(4-oxo-1-(tetrahydrofuran-3-yl)-4,5-dihydro-1H-pyrazolo[4,3-c]pyridin-3-yl)benzenesulfonamide] | 95 | – | Inhibitory rate (%) Tyk2 1 μM (Tyk2): 78%
6 | NS(=O)(=O)c1ccc(-c2nn(C3CCOC3)c3cc[nH]c(=O)c23)cc1 (stereo not drawn) [Example 83, 4-(4-oxo-1-(tetrahydrofuran-3-yl)-4,5-dihydro-1H-pyrazolo[4,3-c]pyridin-3-yl)benzenesulfonamide] | – | – | Inhibitory rate (%) JAK1 1 μM (JAK1): 97%; Inhibitory rate (%) Tyk2 1 μM (Tyk2): 89%
7 | NS(=O)(=O)c1ccc(-c2nn(C3CCOC3)c3cc[nH]c(=O)c23)cc1 (stereo not drawn) [Example 84, 4-(4-oxo-1-(tetrahydrofuran-3-yl)-4,5-dihydro-1H-pyrazolo[4,3-c]pyridin-3-yl)benzenesulfonamide] | – | – | Inhibitory rate (%) JAK1 1 μM (JAK1): 84%; Inhibitory rate (%) Tyk2 1 μM (Tyk2): 58%
8 | CC(C)(C)n1nc(-c2ccc(S(N)(=O)=O)cc2)c2c(=O)[nH]ccc21 [Example 86, 4-(1-tert-butyl-4-oxo-4,5-dihydro-1H-pyrazolo[4,3-c]pyridin-3-yl)benzenesulfonamide] | 94 | 85 | –
9 | NS(=O)(=O)c1ccc(-c2nn(C3CCCOC3)c3cc[nH]c(=O)c23)cc1 (stereo not drawn) [Example 87, 4-(4-oxo-1-(tetrahydro-2H-pyran-3-yl)-4,5-dihydro-1H-pyrazolo[4,3-c]pyridin-3-yl)benzenesulfonamide] | 99 | 96 | –
10 | NS(=O)(=O)c1ccc(-c2nn(C3CCCOC3)c3cc[nH]c(=O)c23)cc1 (stereo not drawn) [Example 88, 4-(4-oxo-1-(tetrahydro-2H-pyran-3-yl)-4,5-dihydro-1H-pyrazolo[4,3-c]pyridin-3-yl)benzenesulfonamide] | – | – | Inhibitory rate (%) JAK1 1 μM (JAK1): 96%; Inhibitory rate (%) Tyk2 1 μM (Tyk2): 91%
11 | N#Cc1c[nH]c(=O)c2c(-c3cccc(C(N)=O)c3)cn(C3CCCC3)c12 [Example 89, 3-(7-cyano-1-cyclopentyl-4-oxo-4,5-dihydro-1H-pyrrolo[3,2-c]pyridin-3-yl)benzamide] | 64 | 94 | –
12 | CC1(C)OCC(Cn2cc(-c3ccc(S(N)(=O)=O)cc3)c3c(=O)[nH]ccc32)O1 (stereo not drawn) [Example 90, 4-(1-((2,2-dimethyl-1,3-dioxolan-4-yl)methyl)-4-oxo-4,5-dihydro-1H-pyrrolo[3,2-c]pyridin-3-yl)benzenesulfonamide] | – | – | inhibition at 10 µM (JAK1; test compound 10 μM, read-out: Inhibitory rate (%) JAK1 10 μM): 38%; inhibition at 10 µM (Tyk2; test compound 10 μM, read-out: Inhibitory rate (%) Tyk2 10 μM): 22%
13 | NS(=O)(=O)c1ccc(-c2cn(CC(O)CO)c3cc[nH]c(=O)c23)cc1 (stereo not drawn) [Example 91, 4-(1-(2,3-dihydroxypropyl)-4-oxo-4,5-dihydro-1H-pyrrolo[3,2-c]pyridin-3-yl)benzenesulfonamide] | 19 | 92 | –
14 | NS(=O)(=O)c1ccc(-c2nn(C3CCCC3)c3cc[nH]c(=O)c23)cc1 [Example 92, 4-(1-cyclopentyl-4-oxo-4,5-dihydro-1H-pyrazolo[4,3-c]pyridin-3-yl)benzenesulfonamide] | 100 | 99 | –
15 | N#CCc1cc(-c2cn(C3CCCC3)c3c(C#N)c[nH]c(=O)c23)cs1 [Example 93, 3-(5-(cyanomethyl)-3-thienyl)-1-cyclopentyl-4-oxo-4,5-dihydro-1H-pyrrolo[3,2-c]pyridine-7-carbonitrile] | 98 | 99 | –
16 | COc1ccc(Cn2nc(-c3ccc(S(N)(=O)=O)cc3)c3c(=O)[nH]ccc32)cc1 [Example 94, 4-(1-(4-methoxybenzyl)-4-oxo-4,5-dihydro-1H-pyrazolo[4,3-c]pyridin-3-yl)benzenesulfonamide] | 80 | 78 | –
17 | N#Cc1c[nH]c(=O)c2c(-c3ccc(CC(N)=O)cc3)cn(C3CCCC3)c12 [Example 95, 2-(4-(7-cyano-1-cyclopentyl-4-oxo-4,5-dihydro-1H-pyrrolo[3,2-c]pyridin-3-yl)phenyl)acetamide] | 86 | 98 | –
18 | N#CCc1ccc(-c2cn(C3CCCC3)c3c(C#N)c[nH]c(=O)c23)cc1 [Example 96, 3-(4-(cyanomethyl)phenyl)-1-cyclopentyl-4-oxo-4,5-dihydro-1H-pyrrolo[3,2-c]pyridine-7-carbonitrile] | 94 | 99 | –
19 | N#Cc1c[nH]c(=O)c2c(-c3csc(CC(N)=O)c3)cn(C3CCCC3)c12 [Example 97, 2-(4-(7-cyano-1-cyclopentyl-4-oxo-4,5-dihydro-1H-pyrrolo[3,2-c]pyridin-3-yl)-2-thienyl)acetamide] | 97 | 99 | –
20 | N#Cc1c[nH]c(=O)c2c(-c3cnn(CC(N)=O)c3)cn(C3CCCC3)c12 [Example 98, 2-(4-(7-cyano-1-cyclopentyl-4-oxo-4,5-dihydro-1H-pyrrolo[3,2-c]pyridin-3-yl)-1H-pyrazol-1-yl)acetamide] | 78 | 97 | –
21 | N#CCn1cc(-c2cn(C3CCCC3)c3c(C#N)c[nH]c(=O)c23)cn1 [Example 99, 3-(1-(cyanomethyl)-1H-pyrazol-4-yl)-1-cyclopentyl-4-oxo-4,5-dihydro-1H-pyrrolo[3,2-c]pyridine-7-carbonitrile] | 97 | 99 | –
22 | CC1(Cn2nc(-c3ccc(S(N)(=O)=O)cc3)c3c(=O)[nH]ccc32)COC1 [Example 100, 4-(1-((3-methyloxetan-3-yl)methyl)-4-oxo-4,5-dihydro-1H-pyrazolo[4,3-c]pyridin-3-yl)benzenesulfonamide] | 96 | 77 | –
23 | NS(=O)(=O)c1ccc(-c2nn(C3CCCC3)c3c(Br)c[nH]c(=O)c23)cc1 [Example 101, 4-(7-bromo-1-cyclopentyl-4-oxo-4,5-dihydro-1H-pyrazolo[4,3-c]pyridin-3-yl)benzenesulfonamide] | 80 | 91 | –
24 | Cc1ccccc1-c1cn(-c2csc(C(N)=O)c2)c2c(=O)[nH]cc(C#N)c12 [Example 102, 4-(4-cyano-3-(2-methylphenyl)-7-oxo-6,7-dihydro-1H-pyrrolo[2,3-c]pyridin-1-yl)thiophene-2-carboxamide] | 67 | 94 | –
25 | N#Cc1c[nH]c(=O)c2c(-c3ccccc3)cn(C3CCCC3)c12 [Example 103, 1-cyclopentyl-4-oxo-3-phenyl-4,5-dihydro-1H-pyrrolo[3,2-c]pyridine-7-carbonitrile] | 48 | 91 | –
26 | N#CCc1ccc(-c2nn(-c3c(F)cccc3F)c3c(Br)c[nH]c(=O)c23)cc1 [Example 104, (4-(7-bromo-1-(2,6-difluorophenyl)-4-oxo-4,5-dihydro-1H-pyrazolo[4,3-c]pyridin-3-yl)phenyl)acetonitrile] | 94 | 99 | –
27 | NS(=O)(=O)c1ccc(-c2nn(CC3COC3)c3cc[nH]c(=O)c23)cc1 [Example 105, 4-(1-(oxetan-3-ylmethyl)-4-oxo-4,5-dihydro-1H-pyrazolo[4,3-c]pyridin-3-yl)benzenesulfonamide] | 88 | 66 | –
28 | N#Cc1c[nH]c(=O)c2c(-c3ccsc3)cn(C3CCCC3)c12 [Example 106, 1-cyclopentyl-4-oxo-3-(3-thienyl)-4,5-dihydro-1H-pyrrolo[3,2-c]pyridine-7-carbonitrile] | 91 | 98 | –
29 | CN(C)C(=O)c1cc(-c2cn(C3CCCC3)c3c(C#N)c[nH]c(=O)c23)cs1 [Example 107, 4-(7-cyano-1-cyclopentyl-4-oxo-4,5-dihydro-1H-pyrrolo[3,2-c]pyridin-3-yl)-N,N-dimethylthiophene-2-carboxamide] | 96 | 98 | –
30 | CNC(=O)c1cc(-c2cn(C3CCCC3)c3c(C#N)c[nH]c(=O)c23)cs1 [Example 108, 4-(7-cyano-1-cyclopentyl-4-oxo-4,5-dihydro-1H-pyrrolo[3,2-c]pyridin-3-yl)-N-methylthiophene-2-carboxamide] | 99 | 100 | –
